# Measurements as given in patent US9169254B2, “Spiroimidazolone derivative” (Chugai Seiyaku Kabushiki Kaisha, priority 2009, dated 2015).
# Molecular target: T1, human PTH1 receptor (Homo sapiens, UniProt Q03431)
# T1 sequence (Q03431 27-593): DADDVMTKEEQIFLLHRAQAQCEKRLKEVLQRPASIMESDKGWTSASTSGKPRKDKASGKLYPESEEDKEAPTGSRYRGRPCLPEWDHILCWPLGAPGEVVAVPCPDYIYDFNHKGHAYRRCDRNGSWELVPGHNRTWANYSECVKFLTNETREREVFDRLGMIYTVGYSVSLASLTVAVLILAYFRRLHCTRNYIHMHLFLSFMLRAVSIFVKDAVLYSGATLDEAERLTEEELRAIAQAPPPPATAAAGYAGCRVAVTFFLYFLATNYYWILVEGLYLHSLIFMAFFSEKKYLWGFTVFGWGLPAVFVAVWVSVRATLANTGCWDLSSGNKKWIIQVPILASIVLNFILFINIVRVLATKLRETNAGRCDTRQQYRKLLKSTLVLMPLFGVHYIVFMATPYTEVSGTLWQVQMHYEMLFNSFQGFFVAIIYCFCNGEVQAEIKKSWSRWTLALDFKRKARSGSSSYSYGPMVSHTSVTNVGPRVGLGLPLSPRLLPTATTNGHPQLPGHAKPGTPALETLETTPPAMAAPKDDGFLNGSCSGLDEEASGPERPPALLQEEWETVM
# Experiment: In vitro cAMP signal activity in HKRK-B7 cells (LLC-PK1 cells overexpressing the human PTH1 receptor)
# Type: cell-based
# Conditions: HKRK-B7 cells; compound at 1×10^−3 M; cAMP produced as percentage of that produced by hPTH(1-34) at 100 nM
row,SMILES,cAMP production activity (%)
1,"Cc1cc(C(=O)N2CCC(O)(CF)CC2)cc(C)c1/C=C/S(=O)(=O)N1CCC2(CC1)N=C(c1ccc(OCCCC(F)(F)C(F)(F)F)c(C(F)(F)F)c1)NC2=O [Compound 1252, 8-{(E)-2-[4-(4-fluoromethyl-4-hydroxy-piperidine-1-carbonyl)-2,6-dimethyl-phenyl]-ethenesulfonyl}-2-[4-(4,4,5,5,5-pentafluoro-pentyloxy)-3-trifluoromethyl-phenyl]-1,3,8-triaza-spiro[4.5]dec-1-en-4-one]",72
2,"[2H]C([2H])([2H])C([2H])([2H])Oc1ccc(C2=NC3(CCN(S(=O)(=O)/C=C/c4c(C)cc(C(=O)N5CCC(O)(CF)CC5)cc4C)CC3)C(=O)N2)cc1C(F)(F)F [Compound 1253, 2-(4-[1,1,2,2,2-^2H5]ethoxy-3-trifluoromethyl-phenyl)-8-{(E)-2-[4-(4-fluoromethyl-4-hydroxy-piperidine-1-carbonyl)-2,6-dimethyl-phenyl]-ethenesulfonyl}-1,3,8-triaza-spiro[4.5]dec-1-en-4-one]",81
3,"Cc1cc(C(=O)N2CCC(O)(CF)CC2)cc(C)c1/C=C/S(=O)(=O)N1CCC2(CC1)N=C(c1ccc(Cl)c(Cl)c1)NC2=O [Compound 1257, 2-(3,4-dichloro-phenyl)-8-{(E)-2-[4-(4-fluoromethyl-4-hydroxy-piperidine-1-carbonyl)-2,6-dimethyl-phenyl]-ethenesulfonyl}-1,3,8-triaza-spiro[4.5]dec-1-en-4-one]",98
4,"Cc1cc(C(F)(F)F)ccc1C1=NC2(CCN(S(=O)(=O)/C=C/c3c(C)cc(C(=O)N4CCC(O)(CF)CC4)cc3C)CC2)C(=O)N1 [Compound 1259, 8-{(E)-2-[4-(4-fluoromethyl-4-hydroxy-piperidine-1-carbonyl)-2,6-dimethyl-phenyl]-ethenesulfonyl}-2-(2-methyl-4-trifluoromethyl-phenyl)-1,3,8-triaza-spiro[4.5]dec-1-en-4-one]",101

# Second part, the compound after the results:
row,cAMP production activity (%),SMILES
1,87,"Cc1cc(C2=NC3(CCN(S(=O)(=O)/C=C/c4c(C)cc(C(=O)N5CCC(O)(CF)CC5)cc4C)CC3)C(=O)N2)ccc1C(F)(F)F [Compound 1254, 8-{(E)-2-[4-(4-fluoromethyl-4-hydroxy-piperidine-1-carbonyl)-2,6-dimethyl-phenyl]-ethenesulfonyl}-2-(3-methyl-4-trifluoromethyl-phenyl)-1,3,8-triaza-spiro[4.5]dec-1-en-4-one]"
2,66,"Cc1cc(C(=O)N2CCC(O)(CF)CC2)cc(C)c1/C=C/S(=O)(=O)N1CCC2(CC1)N=C(c1ccc(C(F)F)c(F)c1)NC2=O [Compound 1255, 2-(4-difluoromethyl-3-fluoro-phenyl)-8-{(E)-2-[4-(4-fluoromethyl-4-hydroxy-piperidine-1-carbonyl)-2,6-dimethyl-phenyl]-ethenesulfonyl}-1,3,8-triaza-spiro[4.5]dec-1-en-4-one]"
3,72,"Cc1cc(C(=O)N2CCC(O)(CF)CC2)cc(C)c1/C=C/S(=O)(=O)N1CCC2(CC1)N=C(c1ccc(F)c(C(F)F)c1)NC2=O [Compound 1256, 2-(3-difluoromethyl-4-fluoro-phenyl)-8-{(E)-2-[4-(4-fluoromethyl-4-hydroxy-piperidine-1-carbonyl)-2,6-dimethyl-phenyl]-ethenesulfonyl}-1,3,8-triaza-spiro[4.5]dec-1-en-4-one]"
4,116,"Cc1cc(C2=NC3(CCN(S(=O)(=O)/C=C/c4c(C)cc(C(=O)N5CCC(O)(CF)CC5)cc4C)CC3)C(=O)N2)ccc1OC(F)(F)F [Compound 1258, 8-{(E)-2-[4-(4-fluoromethyl-4-hydroxy-piperidine-1-carbonyl)-2,6-dimethyl-phenyl]-ethenesulfonyl}-2-(3-methyl-4-trifluoromethoxy-phenyl)-1,3,8-triaza-spiro[4.5]dec-1-en-4-one]"
